Key:
[1] = target: GDP-bound KRAS protein (aa 1-169), containing both G12C and C118A amino acid substitutions (Homo sapiens, UniProt P01116, C118A/G12C); assay: Coupled Nucleotide Exchange Assay (Table 16 conditions: 5 min pre-incubation); format: biochemical; settings: 5 min compound pre-incubation; SOS-mediated nucleotide exchange, AlphaScreen
Experimental: (§1) For compounds in Table 16, the following assay conditions were employed:
The assay plates were then read on a PerkinElmer EnVision Multilabel Reader, using AlphaScreen® technology, and data were analyzed using a 4-parameter logistic model to calculate IC50 values.

[2] = system: Phosphorylation of ERK1/2 in MIA PaCa-2 cells; assay: Phospho-ERK1/2 MSD Assay, MIA PaCa-2 (Table 16 conditions: 2 hours compound treatment); format: cell-based; settings: MIA PaCa-2 cells, 10 ng/mL EGF for 10 min, read-out: p-ERK IC50 (MIA PaCa-2)
Experimental: as §1
Sixteen hours prior to compound treatment, MIA PaCa-2 or A549 cells were seeded in 96-well cell culture plates at a density of 25,000 cells/well and incubated at 37° C., 5% CO2. A compound dose-response titration was diluted in growth media, added to appropriate wells of a cell culture plate, and then incubated at 37° C., 5% CO2 for 2 hours. […] Phosphorylation of ERK1/2 in compound-treated lysates was assayed using Phospho-ERK1/2 Whole Cell Lysate kits (Meso Scale Discovery K151DWD) according to the manufacturer's protocol. Assay plates were read on a Meso Scale Discovery Sector Imager 6000, and data were analyzed using a 4-parameter logistic model to calculate IC50 values.

Sequence of GDP-bound KRAS protein (aa 1-169), containing both G12C and C118A amino acid substitutions (P01116 1-169 isoform P01116-2 G12C/C118A): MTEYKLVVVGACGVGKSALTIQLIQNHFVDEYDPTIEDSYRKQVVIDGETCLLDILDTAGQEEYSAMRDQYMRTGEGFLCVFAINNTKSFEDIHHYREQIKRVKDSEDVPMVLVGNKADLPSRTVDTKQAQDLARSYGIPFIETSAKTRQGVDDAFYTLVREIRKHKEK

Row | SMILES | IC50 [1] [µM] | IC50 [2] [µM]
1 | C=CC(=O)N1CCN(c2nc(=O)n(-c3c(C)ccnc3C3CC3)c3nc(-c4ccccc4F)c(Cl)cc23)[C@@H](C)C1 (single isomer, unassigned) [Example 45-2] | 0.727 | 0.435
2 | C=CC(=O)N1CCN(c2nc(=O)n(-c3ccccc3C(C)(C)C)c3nc(-c4c(O)cccc4F)c(Cl)cc23)[C@@H](C)C1 (single isomer, unassigned) [Example 49-2] | 0.117 | 0.051
3 | C=CC(=O)N1CCN(c2nc(=O)n(-c3c(C)cnn3C(C)C)c3nc(-c4ccccc4F)c(Cl)cc23)[C@@H](C)C1 (single isomer, unassigned) [Example 53-1] | 0.098 | 0.093
4 | C=CC(=O)N1CCN(c2nc(=O)n(-c3c(C)cnn3C(C)C)c3nc(-c4ccccc4F)c(Cl)cc23)[C@@H](C)C1 (single isomer, unassigned) [Example 53-2] | 0.320 | 0.229
5 | C=CC(=O)N1CCN(c2nc(=O)n(-c3c(C)cccc3C(C)C)c3nc(-c4c(O)cccc4F)c(Cl)cc23)[C@@H](C)C1 [Example 39-1, 6-chloro-7-(2-fluoro-6-hydroxyphenyl)-1-(2-methyl-6-(2-propanyl)phenyl)-4-((2S)-2-methyl-4-(2-propenoyl)-1-piperazinyl)pyrido-[2,3-d]pyrimidin-2(1H)-one] | 0.025 | 0.028
6 | C=CC(=O)N1CCN(c2nc(=O)n(-c3c(C)cccc3C(C)C)c3nc(-c4c(O)cccc4F)c(Cl)cc23)[C@@H](C)C1 [Example 39-2, 6-chloro-7-(2-fluoro-6-hydroxyphenyl)-1-(2-methyl-6-(2-propanyl)phenyl)-4-((2S)-2-methyl-4-(2-propenoyl)-1-piperazinyl)pyrido-[2,3-d]pyrimidin-2(1H)-one] | 0.222 | 0.195
7 | C=CC(=O)N1CCN(c2nc(=O)n(-c3c(C)ccnc3C(C)C)c3nc(-c4ccccc4F)c(Cl)cc23)[C@@H](C)C1 [Example 40, 6-Chloro-7-(2-fluorophenyl)-1-(4-methyl-2-(2-propanyl)-3-pyridinyl)-4-((2S)-2-methyl-4-(2-propenoyl)-1-piperazinyl)pyrido[2,3-d]pyrimidin-2(1H)-one] | 0.063 | 0.029
8 | C=CC(=O)N1CCN(c2nc(=O)n(-c3c(C)ccnc3C(C)C)c3nc(-c4ccccc4F)c(Cl)cc23)[C@@H](C)C1 [Example 40-1, 6-chloro-7-(2-fluoro-phenyl)-1-(4-methyl-2-(2-propanyl)-3-pyridinyl)-4-((2S)-2-methyl-4-(2-propenoyl)-1-piperazinyl)pyrido-[2,3-d]pyrimidin-2(1H)-one] | 0.057 | 0.022
9 | C=CC(=O)N1CCN(c2nc(=O)n(-c3c(C)ccnc3C(C)C)c3nc(-c4ccccc4F)c(Cl)cc23)[C@@H](C)C1 [Example 40-2, 6-chloro-7-(2-fluoro-phenyl)-1-(4-methyl-2-(2-propanyl)-3-pyridinyl)-4-((2S)-2-methyl-4-(2-propenoyl)-1-piperazinyl)pyrido-[2,3-d]pyrimidin-2(1H)-one] | 0.597 | 0.321
10 | C=CC(=O)N1CCN(c2nc(=O)n(-c3c(C)ccnc3C3CC3)c3nc(-c4c(O)cccc4F)c(F)cc23)[C@@H](C)C1 [Example 42, 1-(2-Cyclopropyl-4-methyl-3-pyridinyl)-6-fluoro-7-(2-fluoro-6-hydroxyphenyl)-4-((2S)-2-methyl-4-(2-propenoyl)-1-piperazinyl)pyrido[2,3-d]pyrimidin-2(1H)-one] | 0.335 | 0.362
11 | C=CC(=O)N1CCN(c2nc(=O)n(-c3c(C)ccnc3C3CC3)c3nc(-c4c(O)cccc4F)c(F)cc23)[C@@H](C)C1 [Example 42-1, 1-(2-cyclopropyl-4-methyl-3-pyridinyl)-6-fluoro-7-(2-fluoro-6-hydroxyphenyl)-4-((2S)-2-methyl-4-(2-propenoyl)-1-piperazinyl)pyrido-[2,3-d]pyrimidin-2(1H)-one] | 0.150 | 0.103

From patent US11905281B2 (Amgen Inc., priority 2017, dated 2024)
